{
  "source": "patent US9750728B2",
  "about": "“Method and pharmaceutical composition for inhibiting PI3K/AKT/mTOR signaling pathway” (TARGETED THERAPEUTICS, LLC, priority 2012, dated 2017)",
  "format_in_all_cases": "cell-based",
  "key": {"PI3K [1]": {"test_system": "PI3K", "assay": "PI3K kinase assay in anti-p85 immunoprecipitates", "conditions": "Panc-1, 24 hours", "description": "(§1) PI3K kinase assay kit (Calbiochem, Bilerica, Mass., USA) was used to measure the IRS-1-associated or p85-associated PI3K kinase activity in cells. The indicated cells were treated with different conditions for 24 hours. The cells were rinsed three times with pre-cooled PBS, lysed in 500 μl of lysis buffer (150 mmol/L Nacl, 1% Triton-x-100, 50 mmol/1 Tris (pH8.0, 1 mmol/L PMSF, 1 μg/L aprotinin, 1 μg/Lleupeptin, 1 μg/L peptain). Cell lysates (500 μg, in triplicate) of were used for anti-IRS-1 or anti-p85 immunoprecipitation. The immunoprecipitates were resuspended in 200 μl assay buffer and mixed with the fluorescence-labeled PI3K substrate BODIPY-TMR-phosphatidylinositol (100 μM) and ATP (37° C.) for 1 hour. The fluorescence intensity was measured with a fluorometer (excitation wavelength of 540 nm, emission wavelength […]). The difference between fluorescence intensity between control immunoprecipitates (no lysates) and lysate immunoprecipitates was used to indicate PI3K kinase activity. IR-1 anti-rabbit antibody and rabbit anti-PI3K p85 antibody were purchased from Millipore Corporation (Billerica, Mass., USA). Panc-1 anti-p85 immunoprecipitates were used for PI3K kinase assay (FIG. 12) and immunoblot analysis (FIG. 12). Rapamycin treatment in control cells increased PI3K kinase activity (P<0.01)."}, "[2]": {"test_system": "mTOR (S2448) phosphorylation", "assay": "Immunoblot analysis of mTOR phosphorylation", "conditions": "Panc-1; rapamycin, or Y29794 1 μM (FIG. 19D)", "experimental": "Mouse anti-PRCP antibody was purchased from Abcam (Cambridge, Mass., USA). Goat anti-PREP antibody was purchased from R&D Systems (Minneapolis, Minn., USA). Mouse anti-R-actin antibody antibodies was from Santa Cruz Biotechnology (Santa Cruz, Calif., USA). Panc-1 pancreatic cancer cells and MCF7 breast cancer cells were cultured to 80% confluence, cells were rinsed three times with pre-cooled PBS, 500 μl of lysis buffer (150 mmol/L Nacl, 1% Triton-x-100, 50 mmol/l TrispH8.0, 1 mmol/L PMSF, 1 ug/L aprotinin, 1 ug/L leupeptin, 1 ug/L peptain) was added to the cells. Cells were scraped and transferred to a centrifuge tube with a pipette. The lysates were spun in a microcentrifuge at maximal speed for 10 minutes at 4° C. to get rid of the insoluble fraction. Protein concentration was determined by Bradford assay. For immunoprecipitation: 2-5 ug protein-specific antibodies were added to 250-500 ug of lysates in a tube and incubated on an ordital shaker 4° C. for 2-4 hours with moderate shaking, then 20 ul Protein G beads (Santa Cruz Biotechnology (Santa Cruz, Calif., USA.) were added and the mixture was incubated with moderate shaking for another hour. After washing the beads in lysis buffer five times, the immunoprecipitates were boiled in 2× Laemmli sample buffer (50 mmoL/L Tris-HCL (pH8.0), 100 mmoL/L DTT, 2% SDS, 0.1% bromophenol blue, 10% glycerol) for five minutes. The proteins were separated by conventional SDS-polyacrylamide gel electrophoresis (SDS-PAGE) electrophoresis and transferred to Amersham Hybond-P PVDF membrane (GE Company, Pittsburgh, Pa., USA). For immunoblot, the membrane was blocked in 2% BSA in TBST buffer (Tris 1.21 g+NaCl 5.84 g+800 ml H2O adjusted to pH 8.0 with HCl) for one hour and then incubated with primary antibodies in TBST at room temperature (22-25° C.) for 2 hours. After washing three times with TBST, the membrane was incubated with HRP-conjugated secondary antibodies for 0.5 hours at room temperature. […]"}, "IRS-1": {"test_system": "IRS-1", "assay": "Immunoblot analysis of IRS-1 (protein, phosphorylation, half-life, p85 coimmunoprecipitation)"}, "H1703": {"test_system": "H1703", "assay": "MTT cell viability assay", "conditions": "H1703, different doses, 4 days", "description": "(§2) 1.1. ZPP and Y29794 induces cytotoxicity to cancer cells by MTT analysis of cell viability. Cells were placed in 96-well plates (3×10^3 cells/well) in octuplicate. The cells were then treated with vehicle or different doses of ZPP for 4 days. Cells were then loaded with 1.2 mM MTT (4,5-Dimethylthiazol-2-vn-2,5-diphenvltetrazolium bromide, a yellow tetrazole) in phenol red-free medium for 4 hours. The cells were then lysed in 10% SDS/0.01M HCL. MTT absorbance (570 nm spectrum) was measured by a microplate reader. The relative absorbance is normalized to the control (vehicle-treated) to indicate relative cell viability. ZPP was purchased from Biomol (Plymouth Meeting, Pa., USA). MTT was purchased from Sigma-Aldrich. Panc-1 and Capan-1 pancreatic cancer cell line, MCF7 and T47D breast cancer cell lines, A549 and HI 703 lung cancer Cell lines were purchased from American Type Culture Collection (ATCC, USA) preparation of pancreatic cancer cell line PK-9 have been disclosed, e.g., Kobari M et al, (1986) Tohoku J Exp Med. 150: 231-248; Etoh T et al, (2003) Clin Cancer Res 9; 1218; Arafat H. et al, (2011) Surgery 150 (2): 306-315. Cells were grown in Dulbecco's Modified. Eagle's (DMEM) medium (Invitrogen, Carlsbad, Calif.) containing 10% fetal bovine serum (FBS) (Hyclone, purchased from Thermo Fisher Scientific, Inc). […] In similar experiments, the cells were treated with different doses of Y29794 for 4 days and analyzed for MTT absorbance. Y29794 oxalate was purchased from Tocris Biosciences (Bristol, UK)."}, "PK-9": {"test_system": "PK-9", "assay": "MTT cell viability assay", "conditions": "PK-9, different doses, 4 days", "description": "as §2"}, "AsPC-1": {"test_system": "AsPC-1", "assay": "MTT cell viability assay", "conditions": "AsPC-1, different doses, 4 days", "description": "as §2"}, "TD47": {"test_system": "TD47", "assay": "MTT cell viability assay", "conditions": "TD47, different doses, 4 days", "description": "as §2"}, "MCF7": {"test_system": "MCF7", "assay": "MTT cell viability assay", "conditions": "MCF7, different doses, 4 days", "description": "as §2"}, "Capan-1": {"test_system": "Capan-1", "assay": "MTT cell viability assay", "conditions": "Capan-1, different doses, 4 days", "description": "as §2"}, "A549": {"test_system": "A549", "assay": "MTT cell viability assay", "conditions": "A549, different doses, 4 days", "description": "as §2"}, "MDAMB231": {"test_system": "MDAMB231", "assay": "MTT cell viability assay", "conditions": "MDAMB231, different doses, 4 days", "description": "as §2"}, "PI3K [3]": {"test_system": "PI3K", "assay": "PI3K kinase assay in anti-IRS-1 immunoprecipitates", "conditions": "Panc-1, 24 hours; ZPP 200 μM, Y29794 0.5 μM or rapamycin alone", "description": "as §1, with “(P<0.01). […]” for “(P<0.01).”"}},
  "note": "Entries after “also recorded” stand apart in the source; their conditions may differ.",
  "data": [
    {"smiles": "CC(C)c1ccc(C(=O)c2cccs2)c(SCCCCCCCCN(C)C)n1", "note": "[Y29794, [2-[8-(dimethylamino)octylsulfanyl]-6-propan-2-ylpyridin-3-yl]-thiophen-2-ylmethanone]", "values": [
      {"measurement": "PI3K kinase activity (p85-associated)", "setting": "PI3K [1]; ZPP 200 μM, Y29794 0.5 μM or rapamycin alone, vs vehicle", "result": "reduced; also recorded: significantly lower"},
      {"measurement": "rapamycin-induced increase in PI3K kinase activity (p85-associated)", "setting": "PI3K [1]; rapamycin with ZPP 200 μM or Y29794 0.5 μM", "result": "blocks; also recorded: inhibited"},
      {"measurement": "mTOR (S2448) phosphorylation", "setting": "[2]", "result": "without affecting"},
      {"measurement": "IRS-1 protein", "setting": "IRS-1; Capan-1, Y29794 1 μM (FIG. 19A)", "result": "reduces"},
      {"measurement": "IRS-1 protein", "setting": "IRS-1; PK-9, Y29794 1 μM (FIG. 19A)", "result": "reduces"},
      {"measurement": "MTT absorbance (relative cell viability)", "setting": "H1703", "result": "dose-dependent cytotoxicity"},
      {"measurement": "MTT absorbance (relative cell viability)", "setting": "PK-9", "result": "dose-dependent cytotoxicity"},
      {"measurement": "MTT absorbance (relative cell viability)", "setting": "AsPC-1", "result": "dose-dependent cytotoxicity"},
      {"measurement": "MTT absorbance (relative cell viability)", "setting": "TD47", "result": "dose-dependent cytotoxicity"},
      {"measurement": "MTT absorbance (relative cell viability)", "setting": "MCF7", "result": "dose-dependent cytotoxicity"},
      {"measurement": "MTT absorbance (relative cell viability)", "setting": "Capan-1", "result": "dose-dependent cytotoxicity"},
      {"measurement": "MTT absorbance (relative cell viability)", "setting": "A549", "result": "dose-dependent cytotoxicity"},
      {"measurement": "MTT absorbance (relative cell viability)", "setting": "MDAMB231", "result": "dose-dependent cytotoxicity"},
      {"measurement": "IRS-1-associated PI3K activity", "setting": "PI3K [3]", "result": "reduce; also recorded: decreased"}
    ]}
  ]
}
